# Biological target: human σ2 receptor (TMEM97) (Homo sapiens, UniProt Q5BJF2)
# Test: biochemical
# Assay type: Expi293 membranes
# Conditions: read-out: % of control remaining
# Chain of human σ2 receptor (TMEM97) (Q5BJF2 whole entry): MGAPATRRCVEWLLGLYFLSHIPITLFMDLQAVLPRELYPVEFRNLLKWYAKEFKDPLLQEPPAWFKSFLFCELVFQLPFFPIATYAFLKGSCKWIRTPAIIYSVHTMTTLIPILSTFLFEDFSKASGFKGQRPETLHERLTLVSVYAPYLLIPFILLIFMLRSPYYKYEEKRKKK
row,SMILES,remaining activity at 1 µM
1,O=C(CN1CC[C@@H]2CCC[C@@H]21)Nc1cccc(I)c1 [ZINC000426526480],92%
2,O[C@@H](CN[C@@H](Cc1ccccc1F)c1ccccc1)CN1CCCC1 [ZINC000429522320],60.1%
3,CCCN1C(=O)N(CC(C)(C)N2CCc3ccccc3C2)C(=O)[C@H]1CC [ZINC000430847713],67.3%
4,O=C(C[C@@H]1CCCN1CCOc1cccc([N+](=O)[O-])c1)c1cccs1 [ZINC000430988927],7.5%
5,CCc1ccc([C@@H]2CCN(Cc3cc(=O)n4c(C)cccc4n3)C2)cc1 [ZINC000433044150],5%
6,CN(C(=O)CN1CCC(c2cnc[nH]2)CC1)C(c1ccccc1)c1ccccc1 [ZINC000435004139],99.6%
7,CC(C)N1C[C@H](NC(=O)N[C@@H](C)c2ccc(Br)s2)[C@@H](C)C1 [ZINC000436303801],75.3%
8,C[C@@H]1CCC[C@@H](NC(=O)CN2CCN(CC[C@@H]3CCOC3)CC2)C1 [ZINC000438095302],38.1%
9,Cc1c(C(=O)NCC2CCCC2)cnc2c1c(=O)n(C)c(=O)n2C [ZINC000438905691],105%
10,C[C@@H]1C[C@@H](c2ccccc2)CCN1Cc1nc(C2CC2)cs1 [ZINC000439311985],106%
11,CO[C@H](C)CS(=O)(=O)N1CCN(C(=O)C(=O)N2CCCC2)CC1 [ZINC000442921898],111%
12,CCO[C@@H]1C[C@](CO)(NC[C@H](O)COC2CCOCC2)C1(C)C [ZINC000444807044],120%
13,O[C@@H](CN[C@@H](c1ccc(Br)cc1Cl)C1CC1)CN1CCCC1 [ZINC000446751851],20.8%
14,CCC(CC)n1ccc(CN2CC=C(c3ccc(O)cc3)CC2)n1 [ZINC000448446275],38.7%
15,C[C@@H]1CCC[C@H](NC(=O)CN2CCN(CCC3=CCCCC3)CC2)C1 [ZINC000450551910],16%
16,CS[C@@H]1CCN(C[C@@H](O)COC(c2ccc(F)cc2)c2ccc(F)cc2)C1 [ZINC000451319844],63%
17,O=C([C@@H]1C[C@H]1C(F)(F)F)N(CCN1CCCCCC1)C1CCC1 [ZINC000452023252],37.5%
18,CC(C)N1CC[C@H](N(C)S(=O)(=O)C[C@H]2CCCCC2(F)F)C1 [ZINC000452100574],73.3%
19,CC(C)N1CC[C@@H](N(C)S(=O)(=O)c2c(F)c(F)cc(F)c2F)C1 [ZINC000452107481],36.9%
20,C[C@H](CCCc1cccnc1)N[C@@H](C)Cn1cccn1 [ZINC000453142034],24.9%
21,C[C@@H](CC(N)=O)NC[C@H](CO)Cc1cc(Br)ccc1F [ZINC000453336584],100%
22,COc1cccnc1CN[C@H](Cc1ccc(C)cc1)C1CC1 [ZINC000453351921],69.2%
23,Cc1ccc(C[C@H](CO)NCc2cccc(F)c2)cc1C [ZINC000453607577],86.8%
24,CN1CC[C@@H](CNC(=O)Nc2cc(F)ccc2Oc2ccccc2)C1 [ZINC000454705882],87.6%
25,CCN(CC)[C@H]1CCN(CC(=O)N[C@@H](c2ccccc2)c2cccs2)C1 [ZINC000464767692],73.8%

# Next, values leading:
row,remaining activity at 1 µM,SMILES
1,67.7%,CCN(CC)[C@H]1CCN(C(=O)NCCCc2cccc(Cl)c2)C1 [ZINC000465804078]
2,84.3%,C[C@@H]1CN(C2CC2)C[C@H]1NC(=O)N(Cc1cccc(Br)c1)C1CC1 [ZINC000466933503]
3,35.4%,CC(C)CO[C@H]1CCN([C@@H](C)C(=O)N(C)Cc2ccc(Br)cc2)C1 [ZINC000468894194]
4,45.9%,C[C@@H]1[C@H](Cc2ccccc2)CCN1Cc1cc(=O)n2cc(Cl)ccc2n1 [ZINC000472356611]
5,66.5%,COc1ccnc(N2CCN([C@H](C)CCSc3ccccc3)CC2)n1 [ZINC000473272986]
6,22.5%,C[C@H](NC[C@H](CO)Cc1c(F)cccc1Cl)c1ccco1 [ZINC000483826940]
7,45.1%,CCCCNC(=O)[C@H](C)N1CC[C@](C)(CNC(=O)OC(C)(C)C)C1 [ZINC000495656270]
8,92.4%,CN(C[C@H](O)CN[C@@H]1C[C@H]2CCCCN2C1=O)C(=O)OC(C)(C)C [ZINC000496403719]
9,69.3%,C[C@]1(c2ccccc2)CCCN(CC(=O)N2CCc3ccccc32)C1 [ZINC000500192494]
10,20.4%,C[C@@H]1CCN(CC(=O)N(C)[C@@H](C)c2ccc(F)c(F)c2)C[C@@H]1C [ZINC000501775665]
11,49.2%,COCCN1CCC(N[C@H]2COc3cc(F)c(Br)cc32)CC1 [ZINC000504552433]
12,14%,CC[C@H]1CN(Cc2ccc(-c3ccccc3)cc2F)C[C@H]1O [ZINC000507809396]
13,69.3%,Brc1ccccc1CNc1nccn1Cc1ccccc1 [ZINC000508455082]
14,38.6%,Cc1cccc(CNc2nccn2Cc2ccccc2)c1C [ZINC000508475661]
15,31.6%,C[C@H]1C[C@H](N2CCCC2)CN1CC(=O)N(Cc1ccccc1)c1ccccc1 [ZINC000512182007]
16,89.1%,Cc1ccccc1[C@@H]1CCN([C@H](C)C(=O)NCCc2ccccc2)C1 [ZINC000513818302]

row,remaining activity at 1 µM,SMILES
1,99.3%,Cc1cccc(NC(=O)N(C)C[C@H]2CCCN2C)c1C(=O)N1CCCC1 [ZINC000516964180]
2,98.7%,NC(=O)[C@H](Cc1ccc(Cl)cc1)NCc1cc2ccccc2s1 [ZINC000517634594]
3,79.8%,Cc1ccccc1[C@H](OC[C@H](O)CN1Cc2ccccc2C1)c1ccccc1 [ZINC000518003593]
4,115%,Cc1ccnc2nc(C(=O)N3CCN(CCN4CCCC4)CC3)nn12 [ZINC000518759550]
5,102%,COc1cc(Cl)c(C)cc1NC(=O)[C@H](C)N(C)Cc1sccc1C [ZINC000520440291]
6,93.9%,O=C(Nc1cnc2ccccc2c1)[C@]1(O)CCN(Cc2ccccc2)C1 [ZINC000524392254]
7,93.6%,CC[C@@H]1CCC[C@H](NC(=O)[C@H](C)N2CCCCCC2)C1 [ZINC000525245955]
8,60.7%,Cc1cccc(C[C@H](CO)NCc2cnc(C3CCCCC3)s2)c1 [ZINC000526962900]
9,84%,C[C@@H](N[C@H]1Cc2ccccc2NC1=O)[C@@H]1C[C@H]1c1ccc(Cl)s1 [ZINC000528002641]
10,135%,O=C(NC[C@@H]1CNCCO1)N1CCN(S(=O)(=O)C2CC2)CC1 [ZINC000529344158]
11,84.3%,C[C@@H](C(=O)Nc1cccc(C2CCCCC2)c1)N1CCN(C)CC1 [ZINC000529649527]
12,87.5%,CC1(C)[C@H](NC(=O)[C@]2(O)CCN(Cc3ccccc3)C2)[C@@H]2CCCO[C@@H]21 [ZINC000531059007]
13,99.3%,CC(=O)N1CCN(C(=O)C(=O)Nc2cnn(-c3ccccn3)c2)CC1 [ZINC000531495018]
14,119%,COC(=O)c1ccccc1NC(=O)CN1C[C@@H](c2ccccc2)C[C@@H]1C [ZINC000532978237]
15,79.7%,C[C@H](C(=O)Nc1ccc(F)cc1Cl)N1CC[C@H](N2CCCC2)C1 [ZINC000533411740]
